Test [1] has as its target Recombinant human MALT-1 (amino acids 340-824) (Homo sapiens (Human), UniProt Q9UDY8). Briefly: MALT-1 inhibition assay (fluorogenic substrate Ac-LRSR-Rh110-DP). Type of test: biochemical. The following applies: recombinant human MALT-1, substrate Ac-LRSR-Rh110-DP. The essentials:
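Reactions were started with fluorogenic substrate Ac-LRSR-Rh110-DP (10 μM final) against 3 nM enzyme and kept dark at 25° C for 60 minutes. IC50 values came from 4-parameter logistic fits of percent inhibition calculated from relative fluorescence units.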

The test system of test [2] is IL-2 secretion by human effector memory T cells (TEM). Briefly: Effector memory T cells IL-2 release assay. Type of test: cell-based. The following applies: T-cell; human CD4+ effector memory T cells, CD3/CD28 bead stimulation, 24 h; read-out: CD4TC IL2 IC50. The essentials:
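Human CD4+ effector memory T cells from healthy-donor buffy coats were stimulated with anti-CD3/CD28 Dynabeads and exposed to 10 semi-log compound doses (0.1% DMSO) for 24 h at 37 °C. Supernatant IL-2 was measured by HTRF, and IC50 came from a 4-parameter logistic fit to maximal IL-2. Viability was checked by flow cytometry.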

Recombinant human MALT-1 (amino acids 340-824), sequence (Q9UDY8 340-824): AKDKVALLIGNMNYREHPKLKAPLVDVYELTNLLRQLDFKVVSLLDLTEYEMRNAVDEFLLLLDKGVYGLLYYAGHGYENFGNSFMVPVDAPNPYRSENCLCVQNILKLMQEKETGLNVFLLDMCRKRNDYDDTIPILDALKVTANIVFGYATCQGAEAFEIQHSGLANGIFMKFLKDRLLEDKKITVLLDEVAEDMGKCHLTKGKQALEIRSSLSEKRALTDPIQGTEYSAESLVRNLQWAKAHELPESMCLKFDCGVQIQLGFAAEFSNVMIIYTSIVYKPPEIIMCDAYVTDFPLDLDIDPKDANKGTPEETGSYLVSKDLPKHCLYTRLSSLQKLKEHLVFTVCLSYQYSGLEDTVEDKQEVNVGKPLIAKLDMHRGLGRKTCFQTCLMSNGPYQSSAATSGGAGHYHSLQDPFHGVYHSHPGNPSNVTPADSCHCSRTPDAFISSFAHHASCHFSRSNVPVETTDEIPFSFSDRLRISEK

In general, IC50 refers to the concentration at which inhibition is half-maximal. Take `CN(C(=O)[C@H]1CC[S@](=N)(=O)CC1)[C@@H](c1ccc(N2CCC(C)(C)c3c2cnc2cc(Cl)nn32)cc1)C(F)(F)F` (relative stereo) [CPD0072785, (1rel-r,4rel-r)-N-[(1S)-1-(4-{4-chloro-13,13-dimethyl-2,3,7,10-tetraazatricyclo[7.4.0.0^2,6]trideca-1(9),3,5,7-tetraen-10-yl}phenyl)-2,2,2-trifluoroethyl]-1-imino-N-methyl-1-oxo-1λ^6-thiane-4-carboxamide]: the values for the half-inhibitory concentration (IC50) in test [1] and in test [2] were 76 nM and 51 nM, respectively.

Regarding `CN(C(=O)[C@@H]1C[C@H]2CC[C@@H](C1)S2(=O)=O)[C@@H](c1ccc(N2CCCc3c2cnc2cc(Cl)nn32)cc1)C(F)(F)F` [CPD0072938, (1R,3R,5S)-N-[(1S)-1-(4-{4-chloro-2,3,7,10-tetraazatricyclo[7.4.0.0^2,6]trideca-1(9),3,5,7-tetraen-10-yl}phenyl)-2,2,2-trifluoroethyl]-N-methyl-8,8-dioxo-8λ^6-thiabicyclo[3.2.1]octane-3-carboxamide], the figures for the IC50 in test [1] and in test [2] were 90 nM and 92 nM, respectively.

Consider `CN(C(=O)C1(C#N)CCS(=O)(=O)CC1)[C@@H](c1ccc(N2CCCc3c2cnc2cc(Cl)nn32)cc1)C(F)(F)F` [CPD0073553, N-[(1S)-1-(4-{4-chloro-2,3,7,10-tetraazatricyclo[7.4.0.0^2,6]trideca-1(9),3,5,7-tetraen-10-yl}phenyl)-2,2,2-trifluoroethyl]-4-cyano-N-methyl-1,1-dioxo-1λ^6-thiane-4-carboxamide], for which the IC50 in test [1] stood at 50 nM; in test [2], 77 nM.

With `CN(C(=O)C1CCS(=O)(=O)CC1)[C@@H](c1ccc(N2CCCc3c2cnc2cc(F)nn32)cc1)C(F)(F)F` [CPD0021664, N-methyl-1,1-dioxo-N-[(1S)-2,2,2-trifluoro-1-(4-{4-fluoro-2,3,7,10-tetraazatricyclo[7.4.0.0^2,6]trideca-1(9),3,5,7-tetraen-10-yl}phenyl)ethyl]-1λ^6-thiane-4-carboxamide], the 50% inhibitory concentration (IC50) amounted to 83 nM in test [1] and 195 nM in test [2].

On to `CC(=O)N(C)[C@@H](c1ccc(N2CCCc3c2cnc2cc(Cl)nn32)cc1)C(F)(F)F` [CPD0019349, N-[(1S)-1-(4-{4-chloro-2,3,7,10-tetraazatricyclo[7.4.0.0^2,6]trideca-1(9),3,5,7-tetraen-10-yl}phenyl)-2,2,2-trifluoroethyl]-N-methylacetamide], for which the figures for the concentration for half-maximal inhibition (IC50) in test [1] and in test [2] were 230 nM and 83 nM, respectively.

For the molecule `CN(C(=O)[C@H]1CC[S@+]([O-])CC1)[C@@H](c1ccc(N2CCC(C)(C)c3c2cnc2cc(F)nn32)cc1)C(F)(F)F` (relative stereo) [CPD0072781, (1rel-r,4rel-r)-N-methyl-1-oxo-N-[(1S)-2,2,2-trifluoro-1-(4-{4-fluoro-13,13-dimethyl-2,3,7,10-tetraazatricyclo [7.4.0.02,6]trideca-1(9),3,5,7-tetraen-10-yl}phenyl)ethyl]-1/4-thiane-4-carboxamide], the IC50 in test [1] turned out to be 60 nM; in test [2], 75 nM.

Regarding `CN(C(=O)CC1CCOC1)[C@@H](c1ccc(N2CCCc3c2cnc2cc(Cl)nn32)cc1)C(F)(F)F` (stereo partly drawn) [CPD0021874, N-[(1S)-1-(4-{4-chloro-2,3,7,10-tetraazatricyclo[7.4.0.0^2,6]trideca-1(9),3,5,7-tetraen-10-yl}phenyl)-2,2,2-trifluoroethyl]-N-methyl-2-(oxolan-3-yl)acetamide], the IC50 in test [1] worked out at 256 nM; in test [2], 209 nM.

On to `COc1ccccc1CC(=O)N(C)[C@@H](c1ccc(N2CCCc3c2cnc2cc(Cl)nn32)cc1)C(F)(F)F` [CPD0021561, N-[(1S)-1-(4-{4-chloro-2,3,7,10-tetraazatricyclo[7.4.0.0^2,6]trideca-1(9),3,5,7-tetraen-10-yl}phenyl)-2,2,2-trifluoroethyl]-2-(2-methoxyphenyl)-N-methylacetamide], for which the IC50 in test [1] came to 63 nM; in test [2] it was 900 nM.

With `COc1ccc2ncc(Nc3ccc([C@@H](N(C)C(=O)[C@H]4CC[S@](=N)(=O)CC4)C(F)(F)F)cc3)c([C@H](C)OC)c2n1` (relative stereo) [CPD0077187, (1 rel-s,4rel-s)-1-imino-N-methyl-1-oxo-N-[(1R)-2,2,2-trifluoro-1-[4-({6-methoxy-4-[(1 rel-S)-1-methoxyethyl]-1,5-naphthyridin-3-yl}amino)phenyl]ethyl]-1λ^6-thiane-4-carboxamide], the IC50 in test [1] is 117 nM; in test [2], 209 nM.

Consider `CN(C(=O)[C@H]1CC[S@@](=N)(=O)CC1)[C@@H](c1ccc(N2CCCc3c2cnc2cc(Cl)nn32)cc1)C(F)(F)F` (relative stereo) [CPD0072528, (1rel-s,4rel-S)-N-[(1S)-1-(4-{4-chloro-2,3,7,10-tetraazatricyclo[7.4.0.0^2,6]trideca-1(9),3,5,7-tetraen-10-yl}phenyl)-2,2,2-trifluoroethyl]-1-imino-N-methyl-1-oxo-1λ^6-thiane-4-carboxamide], for which the IC50 amounted to 32 nM in test [1] and 108 nM in test [2].

For `CN(C(=O)c1nn(C)cc1Cl)[C@@H](c1ccc(N2CCCc3c2cnc2cc(Cl)nn32)cc1)C(F)(F)F` [CPD0019352, 4-chloro-N-[(1S)-1-(4-{4-chloro-2,3,7,10-tetraazatricyclo[7.4.0.0^2,6]trideca-1(9),3,5,7-tetraen-10-yl}phenyl)-2,2,2-trifluoroethyl]-N,1-dimethyl-1H-pyrazole-3-carboxamide], the values for the concentration for half-maximal inhibition (IC50) in test [1] and in test [2] were 196 nM and 417 nM, respectively.

In the case of `CN(C(=O)[C@@H]1CCC(=O)N1C)[C@@H](c1ccc(N2CCCc3c2cnc2cc(Cl)nn32)cc1)C(F)(F)F` [CPD0073919, (2S)-N-[(1S)-1-(4-{4-chloro-2,3,7,10-tetraazatricyclo[7.4.0.0^2,6]trideca-1(9),3,5,7-tetraen-10-yl}phenyl)-2,2,2-trifluoroethyl]-N,1-dimethyl-5-oxopyrrolidine-2-carboxamide], the IC50 in test [1] turned out to be 61 nM; in test [2], 112 nM.

As to `CC1CCN(c2ccc([C@H](N(C)C(=O)[C@H]3CC[S@@](=N)(=O)CC3)C(F)(F)F)cc2)c2cnc3cc(Cl)nn3c21` (stereo partly shown) [CPD0072812], the values for the IC50 in test [1] and in test [2] were 31 nM and 79 nM, respectively.

Turning to `Cc1ncc(C(=O)N(C)[C@@H](c2ccc(N3CCCc4c3cnc3cc(Cl)nn43)cc2)C(F)(F)F)n1C` [CPD0019346, N-[(1S)-1-(4-{4-chloro-2,3,7,10-tetraazatricyclo[7.4.0.0^2,6]trideca-1(9),3,5,7-tetraen-10-yl}phenyl)-2,2,2-trifluoroethyl]-N,1,2-trimethyl-1H-imidazole-5-carboxamide], the IC50 in test [1] is 535 nM; in test [2], 720 nM.

On to `CN(C(=O)C1CCS(=O)(=O)CC1)[C@@H](c1ccc(N2CCCc3c2cnc2cc(Cl)nn32)c(F)c1)C(F)(F)F` [CPD0021750, N-[(1S)-1-(4-{4-chloro-2,3,7,10-tetraazatricyclo[7.4.0.0^2,6]trideca-1(9),3,5,7-tetraen-10-yl}-3-fluorophenyl)-2,2,2-trifluoroethyl]-N-methyl-1,1-dioxo-1λ^6-thiane-4-carboxamide], for which the figures for the IC50 in test [1] and in test [2] were 76 nM and 111 nM, respectively.

As for `CN(C(=O)[C@H]1C[C@@H](S(C)(=O)=O)C1)[C@@H](c1ccc(N2CCCc3c2cnc2cc(Cl)nn32)cc1)C(F)(F)F` [CPD0073502, cis-N-[(1S)-1-(4-{4-chloro-2,3,7,10-tetraazatricyclo[7.4.0.0^2,6]trideca-1(9),3,5,7-tetraen-10-yl}phenyl)-2,2,2-trifluoroethyl]-3-methanesulfonyl-N-methylcyclobutane-1-carboxamide], the IC50 in test [1] amounted to 61 nM; in test [2], 104 nM.

In the case of `CC(=O)N1CCC[C@@H](C(=O)N(C)[C@@H](c2ccc(N3CCCc4c3cnc3cc(Cl)nn43)cc2)C(F)(F)F)C1` (relative stereo) [CPD0073499, (3rel-R)-1-acetyl-N-[(1S)-1-(4-{4-chloro-2,3,7,10-tetraazatricyclo[7.4.0.0^2,6]trideca-1(9),3,5,7-tetraen-10-yl}phenyl)-2,2,2-trifluoroethyl]-N-methylpiperidine-3-carboxamide], the concentration for half-maximal inhibition (IC50) in test [1] was 127 nM; in test [2], 175 nM.

As to `CN(C(=O)[C@H]1CC[S@@+]([O-])CC1)[C@@H](c1ccc(N2CCC3(CC3)c3c2cnc2cc(F)nn32)cc1)C(F)(F)F` (relative stereo) [CPD0072932, (1rel-s,4rel-s)-N-methyl-1-oxo-N-[(1S)-2,2,2-trifluoro-1-(4-{4′-fluoro-2′,3′,7′,10′-tetraazaspiro[cyclopropane-1,13′-tricyclo[7.4.0.0^2,6]tridecane]-1′(9′),3′,5′,7′-tetraen-10′-yl}phenyl)ethyl]-1λ^4-thiane-4-carboxamide], the IC50 came to 49 nM in test [1] and 56 nM in test [2].

On to `CN(C(=O)[C@@H]1CCC(=O)NC1)[C@@H](c1ccc(N2CCCc3c2cnc2cc(Cl)nn32)cc1)C(F)(F)F` (relative stereo) [CPD0073568, (3rel-R)-N-[(1S)-1-(4-{4-chloro-2,3,7,10-tetraazatricyclo[7.4.0.0^2,6]trideca-1(9),3,5,7-tetraen-10-yl}phenyl)-2,2,2-trifluoroethyl]-N-methyl-6-oxopiperidine-3-carboxamide], for which the IC50 amounted to 38 nM in test [1] and 131 nM in test [2].

For the molecule `CN(C(=O)[C@H]1CC[S@@](=N)(=O)CC1)[C@@H](c1ccc(N2CCC(C)(C)c3c2cnc2cc(F)nn32)cc1)C(F)(F)F` (relative stereo) [CPD0072782], the figures for the IC50 in test [1] and in test [2] were 53 nM and 95 nM, respectively.

The values are drawn from US20250051327A1, “MALT-1 MODULATORS” (EXSCIENTIA AI LIMITED, priority 2020, published 2025).
